Here are results for four compounds from ChEMBL document CHEMBL1201862, “PubChem BioAssay data set” (2004).

Each structure is given as a SMILES string.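 Where inhibition never reached the appropriate level, the endpoint shown equals the highest concentration tested. Otherwise, values were interpolated linearly from a five-concentration, 48-hour dose response in 96-well plates. At the GI50, growth is halved.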 Calls of active or inactive are those of the source. No stated cut-off is given here; in the data, active = GI50 up to about 1.1 µM and inactive = higher. Where a SMILES comes first, the peptide text is derived from it. The star is where a group is joined. Boc = CC(C)(C)OC(=O)* A value given as a limit tells only on which side of the number the result lay.

Common to all, as to test: growth of human tumour cells (NCI), 48 h
Experiment [1] deals with SF-539.
The test system of experiment [2] is OVCAR-4.
For experiment [3], the system named is SR.
Experiment [4] deals with K562.
Experiment [5] relates to SK-OV-3.
The subject of experiment [6] is Malme-3M.
The subject of experiment [7] is Hs-578T.
The subject of experiment [8] is LOX IMVI.
Experiment [9] relates to DU-145.
Experiment [10] deals with COLO 205.
Experiment [11] has as its system HL-60.
Experiment [12] has as its system OVCAR-5.
In experiment [13] the test system is SNB-75.
The subject of experiment [14] is 786-0.
Experiment [15] deals with UACC-62.
For experiment [16], the system named is SW-620.
Experiment [17] has as its system SF-268.
Experiment [18] has as its system CCRF-CEM.
Experiment [19] concerns MOLT-4.

Regarding `COc1cc2nc(-c3cccs3)nc(N3CCN(c4ccccc4)CC3)c2cc1OC`, the GI50 in experiment [1], in experiment [2], in [3], in experiment [4], in experiment [5] and in experiment [6] was > 100 µM (inactive) throughout. Also, the GI50 in experiment [7], in experiment [8], in [9], in experiment [10], in experiment [11] and in experiment [12] was > 100 µM (inactive) throughout. The GI50 in [13], in experiment [14], in experiment [15], in experiment [16] and in experiment [17] was > 100 µM (inactive) each time.

On to `COC1CC(OC2C(C)OC(OC3C(C)OC(OC4C(C)OC(O[C@H]5CC[C@@]6(C)C(=CC[C@]7(O)[C@@H]6C[C@@H](OC(=O)/C=C(\C)C(C)C)[C@@]6(C)[C@]7(O)CC[C@@]6(O)C(C)=O)C5)CC4OC)CC3OC)CC2OC)OC(C)C1O` (stereo partly drawn), for which the GI50 in experiment [1] was > 12.5 µM (inactive); in experiment [2] it was > 12.5 µM (inactive); in [3] it was > 12.5 µM (inactive); in experiment [4], 10.9 µM (inactive); in experiment [5], > 12.5 µM (inactive); in experiment [6], > 12.5 µM (inactive). The GI50 in [7] was > 12.5 µM (inactive); in [8], > 12.5 µM (inactive); in experiment [18] it was > 12.5 µM (inactive); in [9], > 12.5 µM (inactive); in experiment [10], > 12.5 µM (inactive); in [11], 5.11 µM (inactive). In addition, the GI50 in [19], in [12], in [13], in experiment [14], in experiment [15] and in experiment [16] was > 12.5 µM (inactive) in each case. In experiment [17], the GI50 is > 12.5 µM (inactive).

`CCCC1NC(C#N)(C#N)C(CCC)NC1(C#N)C#N` (stereo not drawn): the GI50 in experiment [1] is 0.197 µM (active); in experiment [2], 1.18 µM (inactive); in experiment [3], < 0.0173 µM (active); in experiment [4], 0.0589 µM (active); in experiment [5], 35.9 µM (inactive); in [6], 0.0297 µM (active). Besides, the GI50 is 3.07 µM (inactive) in experiment [7]; 0.105 µM (active) in [8]; < 0.01 µM (active) in [18]; 3.78 µM (inactive) in [9]; < 0.01 µM (active) in [10]; < 0.0107 µM (active) in experiment [11]. Further, the GI50 in [19] is < 0.0214 µM (active); in [12] it was 24.7 µM (inactive); in experiment [13] it was 2.17 µM (inactive); in [14], 0.0326 µM (active); in experiment [15], 17.4 µM (inactive); in [16], < 0.012 µM (active). Also, the GI50 in experiment [17] is 1.31 µM (inactive).

`COC(=O)C(C)NC(=O)C(CCSC)NC(=O)C(Cc1ccccc1)NC(=O)OC(C)(C)C` (stereo not drawn) (Boc-Phe-Met-Ala-OMe; configuration not given here): the GI50 in experiment [1], in experiment [2], in experiment [3], in [5], in experiment [6] and in experiment [7] was > 100 µM (inactive) throughout. In addition, the GI50 is > 100 µM (inactive) in [8]; > 100 µM (inactive) in [18]; > 100 µM (inactive) in experiment [9]; > 100 µM (inactive) in experiment [10]; 63.2 µM (inactive) in experiment [11]; > 100 µM (inactive) in experiment [19]. Moreover, the GI50 in experiment [12], in [13], in [14], in experiment [15], in experiment [16] and in [17] was > 100 µM (inactive) throughout.
